Data on two compounds can be found in patent publication EP2626066A1, “Combination therapy comprising selective VEGFR-2 inhibitors and MEK inhibitors” (Max-Planck-Gesellschaft zur Förderung der Wissenschaften …, priority 2012, dated 2013).

Structures are written as SMILES.

One assay relates to H1975. The method, then:
(§1) All animal procedures were approved by the local animal protection committee and the local authorities. H1975, H441 and H1650 cells (5x10^6 cells) were injected subcutaneously into male nude mice. […] Mice were treated daily by oral gavage of ZD6474 (50 mg/kg, solved in vehicle), PD0325901 (12mg/kg, dissolved in propylene glycol:water (1:1)), the combination of ZD6474 (50 mg/kg) and PD0325901 (12mg/kg) or vehicle detergent alone. Tumor size of tumors expressing high levels of VEGFR2 (H441, H1975) and tumor with low expression of VEGFR2 (H1650) were monitored measuring perpendicular diameters.
(§2) All animal procedures were approved by the local animal protection committee and the local authorities. High VEGFR2 expressing tumor cell H1975 and H441 (5x10^6 cells), and very low VEGFR2 expressing cells H1650 (5x10^6 cells) were injected subcutaneously into male nude mice. […] Mice were treated daily by oral gavage of ZD6474 (50 mg/kg, solved in vehicle), PD0325901 (12mg/kg, dissolved in propylene glycol:water (1:1)), the combination of ZD6474 (50 mg/kg) and PD0325901 (12mg/kg) or vehicle detergent alone. Tumor size of tumors expressing high levels of VEGFR2 (H441, H1975) and tumor with low expression of VEGFR2 (H1650) were monitored during treatment measuring perpendicular diameters.

The test system of a further assay is H1975 cells. In words: VEGF secretion ELISA assay, H1975 cells. In kind it is cell-based, human. The note with it: H1975 expressing ZD6474 resistance mutation of VEGFR2; in vitro. The method, then: Cells were either treated with the indicated compounds or DMSO alone. After 4 hours cells were stimulated with 40 ng/ml of VEGF165, or incubated in medium containing DMSO only. Cells were then washed twice with PBS and supplemented with serum-free medium and allowed to secrete VEGF for 48 hours. Secretion of VEGF into cell culture supernatants was measured by Human VEGF Quantikine Kit (R&D Systems) according to manufacturer's instructions.
Background: In an ELISA, binding on a coated surface is turned into a signal by an enzyme label.

The test system of a further assay is H1650. The following applies: H1650, very low VEGFR2; daily oral gavage ZD6474 50 mg/kg, PD0325901 12mg/kg; start at about 50mm^3; Fig. 10. How it is done:
as §1, §2

A further assay has as its system H441. The note with it: H441, high VEGFR2; daily oral gavage ZD6474 50 mg/kg, PD0325901 12mg/kg; start at about 50mm^3; Fig. 10. The method, then:
as §1, §2

For `COc1cc2c(Nc3ccc(Br)cc3F)ncnc2cc1OCC1CCN(C)CC1` [Vandetanib, N-(4-bromo-2-fluorophenyl)-6-methoxy-7-[(1-methylpiperidin-4-yl)methoxy]quinazolin-4-amine], in the assay on H1975 (H1975 expressing ZD6474 resistance mutation of VEGFR2, in vivo, Fig. 1e), the “tumor-growth inhibiting effects of the compound” value was “suppressed”. Besides, the “ZD6474-mediated inhibition of VEGF secretion” value in the assay with H1975 cells is “abolished”.
`O=C(NOC[C@H](O)CO)c1ccc(F)c(F)c1Nc1ccc(I)cc1F` [PD0325901, N-[(2R)-2,3-dihydroxypropoxy]-3,4-difluoro-2-[(2-fluoro-4-iodophenyl)amino]-benzamide]: the tumor volume entry in the assay on H1650 is reported as “increased alike”; in the assay with H441 it was “did not reduce the tumor volume”; in the assay on H1975 (H1975, high VEGFR2, daily oral gavage ZD6474 50 mg/kg, PD0325901 12mg/kg, start at about 50mm^3, Fig. 10), “did not reduce the tumor volume”.
